Laboratory results: US20100022562A1, “Use of Plant Growth Regulators to Reduce Abscisic Acid Related Plant Leaf Yellowing” (priority 2008, published 2010)

Key:
Assay type in all cases: in vivo
Pansy plants [1] = test: Pansy yellow leaf number (leaf yellowing)
Description: All studies were conducted in the greenhouse at the research farm of Valent BioSciences Corporation (Long Grove, Ill.). Pansy plants were obtained either from local retailers as mature plants, or plugs from wholesale nurseries. Plugs of Pansy plants were transplanted into an 18-cell flat filled with Promix BX (available from Premier Horticulture Inc. Quakertown, Pa.) and grown for about 30 days prior to treatment. During growing periods, plants received daily irrigation and weekly fertilizer (1 g/L all purpose fertilizer 20-20-20, The Scotts Company, Marysville, Ohio).
(§1) Uniform plants were selected for the study. Prior to chemical treatment, plants were saturated with water and then drained for about two hours. A total of 20 mL chemical solution, which is equivalent to about 10% of the cell volume, was applied to each plant with 3 mL solution foliar applied to canopy and 17 mL solution drench applied to root zone. Unless specified, watering of plants was stopped after chemical treatment.
After chemical treatment, plants were arranged in a randomized complete block experimental design. The plants were rated daily for the extent of wilting on a scale from 1 (no wilting) to 4 (complete wilting) to generated a sales index rating. A rating of 2.5 was the point at which a plant was determined to be unmarketable and the previous day was recorded as the shelf life of that plant in days. […] Leaf transpiration rate was measured after treatment using a LI-1600 Steady State Porometer (LI-Cor, Lincoln, Nebr.). The transpiration rate of each treatment was calculated as the percentage of that of control at each day to reduce day-to-day variation caused by changes of environmental condition such as light intensity, humidity, and temperature.

Pansy plants [2] = test: Pansy shelf life under drought (daily wilting rating, sales index)
How it was run: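 Greenhouse pansies were treated with 20 mL solution each, 3 mL foliar plus 17 mL root drench, then watering was withheld. Wilting was rated daily on a 1–4 scale, and shelf life was the day before the rating reached 2.5. Yellow leaves were counted 3 days after treatment.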

Pansy plants [3] = test: Pansy leaf transpiration rate (LI-1600 Steady State Porometer); conditions: Matrix Premium Rose
Description: as §1
After chemical treatment, plants were arranged in a randomized complete block experimental design. The plants were rated daily for the extent of wilting on a scale from 1 (no wilting) to 4 (complete wilting) to generated a sales index rating. A rating of 2.5 was the point at which a plant was determined to be unmarketable and the previous day was recorded as the shelf life of that plant in days. Yellow leaf number was counted at 3 days after chemical treatment. Leaf transpiration rate was measured after treatment using a LI-1600 Steady State Porometer (LI-Cor, Lincoln, Nebr.). The transpiration rate of each treatment was calculated as the percentage of that of control at each day to reduce day-to-day variation caused by changes of environmental condition such as light intensity, humidity, and temperature.

c1ccc(CNc2ncnc3nc[nH]c23)cc1 [BA, 6-benzylaminopurine]
Yellow leaf number (Pansy plants [1]; 0.2 mg BA, Matrix Yellow, 3 d after treatment, Table 5): 1.8 | Yellow leaf number (Pansy plants [1]; 0.2 mg BA, no water, Whispers White, 3 d after treatment, Table 15): 7.8 | Yellow leaf number (Pansy plants [1]; 2 mg BA at 0 d, Matrix Premium Rose, 3 d after treatment, Table 11): 0.8 | Yellow leaf number (Pansy plants [1]; 2 mg BA at +1 d, Matrix Premium Rose, 3 d after treatment, Table 11): 0.8 | Yellow leaf number (Pansy plants [1]; 2 mg BA at −1 d, Matrix Premium Rose, 3 d after treatment, Table 11): 0.7 | Yellow leaf number (Pansy plants [1]; 2 mg BA, Delta Premium Pure White, 3 days after treatment, Table 23): 1.3 | Yellow leaf number (Pansy plants [1]; 2 mg BA, Delta Premium Pure White, 7 days after treatment, Table 23): 6.2 | Yellow leaf number (Pansy plants [1]; 2 mg BA, Matrix Yellow, 3 d after treatment, Table 5): 1.5 | Yellow leaf number (Pansy plants [1]; 2 mg BA, no water, Matrix Premium Rose, 3 d after treatment, Table 13): 0.8 | Yellow leaf number (Pansy plants [1]; 2 mg BA, no water, Whispers White, 3 d after treatment, Table 15): 6.3 | Yellow leaf number (Pansy plants [1]; 2 mg, Clear Sky Yellow, drought, 3 d after treatment, Table 8): 0.0 | Yellow leaf number (Pansy plants [1]; 2 mg, Crown Azure Blue, drought, 3 d after treatment, Table 9): 0.3 | Yellow leaf number (Pansy plants [1]; 2 mg, Matrix Yellow, drought, 3 d after treatment, Table 7): 7.8 | Yellow leaf number (Pansy plants [1]; 2 mg, Matrix Yellow, drought, 3 d after treatment, Table 10): 7.2 | Shelf life (Pansy plants [2]; 0.2 mg BA, Matrix Yellow, Table 5): 3.8 days | Shelf life (Pansy plants [2]; 0.2 mg BA, no water, Whispers White, Table 15): 2.5 days | Shelf life (Pansy plants [2]; 2 mg BA at 0 d, Matrix Premium Rose, Table 11): 3.7 days | Shelf life (Pansy plants [2]; 2 mg BA at +1 d, Matrix Premium Rose, Table 11): 4.0 days | Shelf life (Pansy plants [2]; 2 mg BA at −1 d (1 day prior to ABA treatment day), Matrix Premium Rose, Table 11): 3.8 days | Shelf life (Pansy plants [2]; 2 mg BA, Delta Premium Pure White, Table 23): 4.0 days | Shelf life (Pansy plants [2]; 2 mg BA, Matrix Yellow, Table 5): 3.8 days | Shelf life (Pansy plants [2]; 2 mg BA, no water, Matrix Premium Rose, Table 13): 4.0 days | Shelf life (Pansy plants [2]; 2 mg BA, no water, Whispers White, Table 15): 2.7 days | Shelf life (Pansy plants [2]; 2 mg, Clear Sky Yellow, drought, Table 8): 3.8 days | Shelf life (Pansy plants [2]; 2 mg, Crown Azure Blue, drought, Table 9): 3.3 days | Shelf life (Pansy plants [2]; 2 mg, Matrix Yellow, drought, Table 7): 3.5 days | Shelf life (Pansy plants [2]; 2 mg, Matrix Yellow, drought, Table 10): 2.3 days | Transpiration rate (% of control) (Pansy plants [3]; 0.2 mg BA, no water, day 1 after treatment, Table 16): 101 % of control | Transpiration rate (% of control) (Pansy plants [3]; 0.2 mg BA, no water, day 2 after treatment, Table 16): 29 % of control | Transpiration rate (% of control) (Pansy plants [3]; 0.2 mg BA, no water, day 3 after treatment, Table 16): 7 % of control | Transpiration rate (% of control) (Pansy plants [3]; 0.2 mg BA, watered, day 1 after treatment, Table 16): 102 % of control | Transpiration rate (% of control) (Pansy plants [3]; 0.2 mg BA, watered, day 2 after treatment, Table 16): 98 % of control | Transpiration rate (% of control) (Pansy plants [3]; 0.2 mg BA, watered, day 3 after treatment, Table 16): 100 % of control | Transpiration rate (% of control) (Pansy plants [3]; 0.2 mg BA, watered, day 4 after treatment, Table 16): 101 % of control | Transpiration rate (% of control) (Pansy plants [3]; 0.2 mg BA, watered, day 5 after treatment, Table 16): 100 % of control | Transpiration rate (% of control) (Pansy plants [3]; 0.2 mg BA, watered, day 7 after treatment, Table 16): 99 % of control | Transpiration rate (% of control) (Pansy plants [3]; 0.2 mg BA, watered, day 10 after treatment, Table 16): 100 % of control | Transpiration rate (% of control) (Pansy plants [3]; 2 mg BA at 0 d, day 1 after ABA treatment, Table 12): 105 % of control | Transpiration rate (% of control) (Pansy plants [3]; 2 mg BA at 0 d, day 2 after ABA treatment, Table 12): 97 % of control | Transpiration rate (% of control) (Pansy plants [3]; 2 mg BA at 0 d, day 3 after ABA treatment, Table 12): 98 % of control | Transpiration rate (% of control) (Pansy plants [3]; 2 mg BA at +1 d, day 1 after ABA treatment, Table 12): 96 % of control | Transpiration rate (% of control) (Pansy plants [3]; 2 mg BA at +1 d, day 2 after ABA treatment, Table 12): 101 % of control | Transpiration rate (% of control) (Pansy plants [3]; 2 mg BA at +1 d, day 3 after ABA treatment, Table 12): 107 % of control | Transpiration rate (% of control) (Pansy plants [3]; 2 mg BA at −1 d, day 1 after ABA treatment, Table 12): 115 % of control | Transpiration rate (% of control) (Pansy plants [3]; 2 mg BA at −1 d, day 2 after ABA treatment, Table 12): 104 % of control | Transpiration rate (% of control) (Pansy plants [3]; 2 mg BA at −1 d, day 3 after ABA treatment, Table 12): 109 % of control | Transpiration rate (% of control) (Pansy plants [3]; 2 mg BA, no water, day 1 after treatment, Table 14): 108 % of control | Transpiration rate (% of control) (Pansy plants [3]; 2 mg BA, no water, day 1 after treatment, Table 16): 101 % of control | Transpiration rate (% of control) (Pansy plants [3]; 2 mg BA, no water, day 2 after treatment, Table 14): 71 % of control | Transpiration rate (% of control) (Pansy plants [3]; 2 mg BA, no water, day 2 after treatment, Table 16): 34 % of control | Transpiration rate (% of control) (Pansy plants [3]; 2 mg BA, no water, day 3 after treatment, Table 14): 54 % of control | Transpiration rate (% of control) (Pansy plants [3]; 2 mg BA, no water, day 3 after treatment, Table 16): 14 % of control | Transpiration rate (% of control) (Pansy plants [3]; 2 mg BA, no water, day 4 after treatment, Table 14): 35 % of control | Transpiration rate (% of control) (Pansy plants [3]; 2 mg BA, watered, day 1 after treatment, Table 14): 109 % of control | Transpiration rate (% of control) (Pansy plants [3]; 2 mg BA, watered, day 1 after treatment, Table 16): 99 % of control | Transpiration rate (% of control) (Pansy plants [3]; 2 mg BA, watered, day 2 after treatment, Table 14): 102 % of control | Transpiration rate (% of control) (Pansy plants [3]; 2 mg BA, watered, day 2 after treatment, Table 16): 97 % of control | Transpiration rate (% of control) (Pansy plants [3]; 2 mg BA, watered, day 3 after treatment, Table 14): 101 % of control | Transpiration rate (% of control) (Pansy plants [3]; 2 mg BA, watered, day 3 after treatment, Table 16): 98 % of control | Transpiration rate (% of control) (Pansy plants [3]; 2 mg BA, watered, day 4 after treatment, Table 14): 101 % of control | Transpiration rate (% of control) (Pansy plants [3]; 2 mg BA, watered, day 4 after treatment, Table 16): 97 % of control | Transpiration rate (% of control) (Pansy plants [3]; 2 mg BA, watered, day 5 after treatment, Table 14): 99 % of control | Transpiration rate (% of control) (Pansy plants [3]; 2 mg BA, watered, day 5 after treatment, Table 16): 101 % of control | Transpiration rate (% of control) (Pansy plants [3]; 2 mg BA, watered, day 7 after treatment, Table 14): 98 % of control | Transpiration rate (% of control) (Pansy plants [3]; 2 mg BA, watered, day 7 after treatment, Table 16): 97 % of control | Transpiration rate (% of control) (Pansy plants [3]; 2 mg BA, watered, day 10 after treatment, Table 14): 101 % of control | Transpiration rate (% of control) (Pansy plants [3]; 2 mg BA, watered, day 10 after treatment, Table 16): 102 % of control | Transpiration rate (% of control) (Pansy plants [3]; 2 mg BA, watered, day 15 after treatment, Table 14): 98 % of control
